Results published in patent US20220152064A1, “BENZOAZEPINE COMPOUND-CONTAINING PHARMACEUTICAL COMPOSITION” (OTSUKA PHARMACEUTICAL CO., LTD., priority 2019, published 2022).

Test: Side effects on the skin or subcutaneous tissue in test of intravenous administration of compound A composition to healthy subjects
Assay type: in vivo, human
Conditions: for Erythema (number of subjects) / Hyperhidrosis (number of subjects) / Number of subjects who showed at least one symptom / Pruritus (number of subjects): N=6 healthy adult males, within 24 hours after initiation of administration
Method: Water for injection (5 mL) was added to each of the obtained 0 mg formulation and 25 mg formulation to dissolve the freeze-dried compositions (freeze-dried cakes), thus obtaining aqueous solutions for injection. When the 25 mg formulation was dissolved in 5 mL of water for injection, 5.21 mL of the aqueous solution composition (25 mg formulation (aqueous solution for injection)) shown in Table 1 comprising 5 mg/mL of the active ingredient (compound A) was reconstituted. Further, according to the compositions shown in Table 3 below, administration solutions were prepared by mixing the 25 mg formulation (aqueous solution for injection), the 0 mg formulation (aqueous solution for injection), and a physiological saline (physiological saline solution).
Each of the obtained administration solutions was intravenously administered with a syringe pump over the administration times shown in Table 3. The number of subjects to which each solution was administered was 6 healthy adult males (aged 20 to 40 years old) (N=6).
The number of subjects who developed, within 24 hours after the initiation of administration, side effects that could appear on the skin or subcutaneous tissue (erythema, hyperhidrosis, or pruritus) was recorded.

[1] = administration solution 1, 15 mg compound A i.v. over 2 hours
[2] = administration solution 2, 7.5 mg compound A i.v. over 2 hours
[3] = administration solution 3, 15 mg compound A i.v. over 5 minutes
[4] = administration solution 4, 7.5 mg compound A i.v. over 5 minutes
[5] = administration solution 5, 15 mg compound A i.v. over 1 minute
[6] = administration solution 6, 7.5 mg compound A i.v. over 1 minute

Cc1ccccc1C(=O)Nc1ccc(C(=O)N2CCCC(OP(=O)([O-])[O-])c3cc(Cl)ccc32)c(C)c1.[Na+].[Na+] (centres unmarked) [compound A]
erythema, hyperhidrosis, or pruritus (7.5 mg or 15 mg of compound A intravenously administered over a period of 1 minute or 5 minutes (administration solutions 3 to 6)): frequently observed | side effects that could appear on the skin or subcutaneous tissue, such as erythema, hyperhidrosis, or pruritus (7.5 mg or 15 mg of compound A slowly administered over a period of 2 hours (administration solutions 1 and 2)): no side effects | Erythema (number of subjects) [1]: 0 human | Hyperhidrosis (number of subjects) [1]: 0 human | Number of subjects who showed at least one symptom [1]: 0 human | Pruritus (number of subjects) [1]: 0 human | Erythema (number of subjects) [2]: 0 human | Hyperhidrosis (number of subjects) [2]: 0 human | Number of subjects who showed at least one symptom [2]: 0 human | Pruritus (number of subjects) [2]: 0 human | Erythema (number of subjects) [3]: 4 human | Hyperhidrosis (number of subjects) [3]: 2 human | Number of subjects who showed at least one symptom [3]: 5 human | Pruritus (number of subjects) [3]: 4 human | Erythema (number of subjects) [4]: 3 human | Hyperhidrosis (number of subjects) [4]: 2 human | Number of subjects who showed at least one symptom [4]: 4 human | Pruritus (number of subjects) [4]: 3 human | Erythema (number of subjects) [5]: 5 human | Hyperhidrosis (number of subjects) [5]: 2 human | Number of subjects who showed at least one symptom [5]: 5 human | Pruritus (number of subjects) [5]: 4 human | Erythema (number of subjects) [6]: 5 human | Hyperhidrosis (number of subjects) [6]: 0 human | Number of subjects who showed at least one symptom [6]: 5 human | Pruritus (number of subjects) [6]: 4 human
